From ChEMBL document CHEMBL4425144, “Discovery and Structural Optimization of N5-Substituted 6,7-Dioxo-6,7-dihydropteridines as Potent and Selective Epidermal Growth Factor Receptor (EGFR) Inhibitors against L858R/T790M Resistance Mutation” (J Med Chem, 2016)
≈ marks a conversion by molar mass, not a printed value.

Experiments:
[1] = Thermodynamic solubility of the compound in 0.1M PBS buffer at pH 7.4 by UV-visible spectrophotometry; type: physicochemical; conditions: read-out: Therm_solubility
A-431 [2] = test: Antiproliferative activity against human A431 cells incubated for 72 hrs by SRB assay; type: functional, cell-based; conditions: A-431, 72 h
[3] = biological target: Epidermal growth factor receptor (Homo sapiens, UniProt P00533, L858R/T790M); test: Inhibition of EGFR kinase domain L858R/T790M mutant (unknown origin) expressed using baculovirus expression system incubated for 1 hr using Poly(Glu,Tyr) 4:1 by ELISA method
Chain of Epidermal growth factor receptor (Homo sapiens, UniProt P00533, L858R/T790M) (P00533 25-1210 T790M/L858R limits assumed): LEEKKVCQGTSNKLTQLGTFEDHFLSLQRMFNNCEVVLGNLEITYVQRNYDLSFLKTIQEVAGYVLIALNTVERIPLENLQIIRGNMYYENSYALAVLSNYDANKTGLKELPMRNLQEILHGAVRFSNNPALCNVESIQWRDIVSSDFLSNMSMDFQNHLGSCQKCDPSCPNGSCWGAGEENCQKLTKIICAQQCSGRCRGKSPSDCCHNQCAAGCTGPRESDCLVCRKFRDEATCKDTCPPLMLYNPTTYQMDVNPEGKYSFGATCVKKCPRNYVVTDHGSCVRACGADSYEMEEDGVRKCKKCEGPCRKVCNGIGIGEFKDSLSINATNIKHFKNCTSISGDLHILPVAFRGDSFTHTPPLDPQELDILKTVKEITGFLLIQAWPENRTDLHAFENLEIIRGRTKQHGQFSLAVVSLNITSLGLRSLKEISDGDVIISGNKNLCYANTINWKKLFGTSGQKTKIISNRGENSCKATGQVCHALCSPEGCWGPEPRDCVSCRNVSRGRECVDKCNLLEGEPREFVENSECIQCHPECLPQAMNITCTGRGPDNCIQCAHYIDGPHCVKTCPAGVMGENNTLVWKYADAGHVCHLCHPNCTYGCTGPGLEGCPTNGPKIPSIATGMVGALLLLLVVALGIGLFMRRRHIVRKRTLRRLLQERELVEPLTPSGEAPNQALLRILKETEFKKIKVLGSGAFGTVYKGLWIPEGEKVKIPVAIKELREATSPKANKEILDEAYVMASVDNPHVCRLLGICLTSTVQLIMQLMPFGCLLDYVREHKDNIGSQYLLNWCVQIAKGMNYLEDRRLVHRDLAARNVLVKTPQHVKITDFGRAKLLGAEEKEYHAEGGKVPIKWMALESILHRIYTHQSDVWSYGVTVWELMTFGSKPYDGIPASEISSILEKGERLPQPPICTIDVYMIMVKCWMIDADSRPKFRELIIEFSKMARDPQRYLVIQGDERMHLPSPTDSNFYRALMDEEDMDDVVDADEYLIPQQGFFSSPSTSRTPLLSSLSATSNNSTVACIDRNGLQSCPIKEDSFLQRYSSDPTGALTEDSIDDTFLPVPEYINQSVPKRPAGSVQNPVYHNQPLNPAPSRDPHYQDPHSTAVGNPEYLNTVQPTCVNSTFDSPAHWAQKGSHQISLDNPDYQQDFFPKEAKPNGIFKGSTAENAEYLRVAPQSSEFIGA

NCI-H1975 = test: Antiproliferative activity against human NCI-H1975 cells incubated for 72 hrs by SRB assay; type: functional, cell-based; conditions: NCI-H1975, 72 h
[4] = biological target: Epidermal growth factor receptor (Homo sapiens, UniProt P00533); test: Inhibition of wild type EGFR kinase domain (unknown origin) expressed using baculovirus expression system incubated for 1 hr using Poly(Glu,Tyr) 4:1 by ELISA method
Chain of Epidermal growth factor receptor (Homo sapiens, UniProt P00533) (P00533 whole entry, the tested form may be a part): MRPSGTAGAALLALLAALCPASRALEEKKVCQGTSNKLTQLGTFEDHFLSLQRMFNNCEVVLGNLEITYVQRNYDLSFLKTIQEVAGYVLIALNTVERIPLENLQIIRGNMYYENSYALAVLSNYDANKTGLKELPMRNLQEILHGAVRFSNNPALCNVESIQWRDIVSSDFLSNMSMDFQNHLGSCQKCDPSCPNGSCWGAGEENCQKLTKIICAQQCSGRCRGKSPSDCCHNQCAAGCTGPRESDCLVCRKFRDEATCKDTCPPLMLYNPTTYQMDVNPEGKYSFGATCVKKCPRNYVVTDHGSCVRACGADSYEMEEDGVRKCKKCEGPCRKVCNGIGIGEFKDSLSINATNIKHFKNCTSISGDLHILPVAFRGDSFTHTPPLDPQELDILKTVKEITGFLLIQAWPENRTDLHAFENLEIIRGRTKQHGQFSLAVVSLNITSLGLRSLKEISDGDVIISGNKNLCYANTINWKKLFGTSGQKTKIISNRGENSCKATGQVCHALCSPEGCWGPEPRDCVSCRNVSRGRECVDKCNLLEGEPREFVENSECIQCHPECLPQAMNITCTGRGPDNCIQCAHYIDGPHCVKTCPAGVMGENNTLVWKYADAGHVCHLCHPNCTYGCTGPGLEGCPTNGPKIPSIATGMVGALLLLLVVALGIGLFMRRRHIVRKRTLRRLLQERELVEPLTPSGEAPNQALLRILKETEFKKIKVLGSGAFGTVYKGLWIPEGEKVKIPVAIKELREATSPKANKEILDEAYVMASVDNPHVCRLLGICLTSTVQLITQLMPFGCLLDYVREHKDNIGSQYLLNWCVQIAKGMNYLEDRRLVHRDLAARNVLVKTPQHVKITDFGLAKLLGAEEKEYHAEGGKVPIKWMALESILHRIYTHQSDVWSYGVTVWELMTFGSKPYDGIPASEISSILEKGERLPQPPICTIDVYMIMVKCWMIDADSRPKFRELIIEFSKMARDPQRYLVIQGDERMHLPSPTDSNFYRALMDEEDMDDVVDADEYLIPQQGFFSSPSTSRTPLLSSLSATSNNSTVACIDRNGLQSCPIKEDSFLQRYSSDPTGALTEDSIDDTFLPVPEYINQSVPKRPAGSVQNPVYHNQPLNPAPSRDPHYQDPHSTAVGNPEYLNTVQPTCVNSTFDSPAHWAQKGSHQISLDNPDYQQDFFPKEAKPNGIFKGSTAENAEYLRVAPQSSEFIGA

[5] = Dissociation constant, pKa of the compound by Sirius T3 based assay; type: physicochemical
A-431 [6] = test: Antitumor activity against human A431 cells xenografted in BALB/c mouse assessed as inhibition of tumor growth at 25 mg/kg, po qd for 14 consecutive days; type: functional; conditions: A-431, po, read-out: TGI

Row | SMILES | solubility thermodynamic [1] | IC50 (A-431 [2]) | IC50 [3] | IC50 (NCI-H1975) | IC50 [4] | pKa [5] | inhibition in vivo at 25 mg/kg (A-431 [6])
1 | C=CC(=O)Nc1cccc(-n2c(=O)c(=O)n(CC)c3cnc(Nc4ccc(N5CCN(C)CC5)cc4OC)nc32)c1 | < 10 µg/mL | 8820 nM | 1.2 nM | 126 nM | 81 nM | 7.4 | 
2 | CN(C)C/C=C/C(=O)Nc1cc2c(Nc3ccc(F)c(Cl)c3)ncnc2cc1O[C@H]1CCOC1 [AFATINIB] |  |  |  |  |  |  | 94%
3 | C=CC(=O)Nc1cccc(-n2c(=O)c(=O)n(C(C)C)c3cnc(Nc4ccc(N(C)CCN(C)C)cc4OC)nc32)c1 | 1620 µg/mL (≈ 2830 µM) | 1530 nM | 17 nM | 440 nM | 223 nM | 8.9 | 
4 | C=CC(=O)Nc1cccc(-n2c(=O)c(=O)n(C(C)C)c3cnc(Nc4ccc(N5CCN(C)CC5)c(C)c4)nc32)c1 | 190 µg/mL (≈ 343 µM) | 309 nM | 1.5 nM | 151 nM | 1.4 nM | 8.1 | 
5 | C=CC(=O)Nc1cccc(-n2c(=O)c(=O)[nH]c3cnc(Nc4ccc(N5CCN(C)CC5)cc4OC)nc32)c1 | 839 µg/mL (≈ 1590 µM) | > 10000 nM | 2.5 nM | > 10000 nM | 2.8 nM | 7.8 | 
6 | C=CC(=O)Nc1cccc(-n2c(=O)c(=O)n(C)c3cnc(Nc4ccc(N5CCN(C)CC5)cc4OC)nc32)c1 | 392 µg/mL (≈ 722 µM) | > 10000 nM | 4.7 nM | 1770 nM | 474 nM | 7.3 | 
7 | C=CC(=O)Nc1cccc(-n2c(=O)c(=O)n(CCC)c3cnc(Nc4ccc(N5CCN(C)CC5)cc4OC)nc32)c1 | < 10 µg/mL | 2140 nM | 0.6 nM | 119 nM | 2.2 nM | 7.5 | 
8 | C=CC(=O)Nc1cccc(-n2c(=O)c(=O)n(C(C)C)c3cnc(Nc4ccc(N5CCC(N6CCN(C)CC6)CC5)cc4OC)nc32)c1 | 109 µg/mL (≈ 167 µM) | 2260 nM | 7.8 nM | 1190 nM | 28 nM | 8.8 | 
9 | C=CC(=O)Nc1cccc(-n2c(=O)c(=O)n(C(C)C)c3cnc(Nc4ccc(N5CCN(C)CC5)c(OC)c4)nc32)c1 | 298 µg/mL (≈ 522 µM) | 669 nM | 1.3 nM | 213 nM | 8.6 nM | 8.4 | 
10 | C=CC(=O)Nc1cccc(-n2c(=O)c(=O)n(C(C)C)c3cnc(Nc4ccc(OCCN(C)C)cc4OC)nc32)c1 | 437 µg/mL (≈ 781 µM) | 1500 nM | 143 nM | 415 nM | 68 nM | 8.8 | 
